Laboratory results from patent US4920103A, “Modifications of mycinose and 3-O-demethylmycinose in tylosin-type macrolides” (Eli Lilly and Company, priority 1986, dated 1990).
≈ marks a conversion by molar mass, not a printed value. Where “and” joins values, the source holds several entries; their conditions need not be identical. Equal entries are not always repeated. Where two headings read alike, the source gives them in different places.

How the values were obtained:
[1] = tested on: Streptococcus pneumoniae Park I; experiment: MIC, standard agar-dilution assay, S. pneumoniae Park I; type: cell-based
Procedure: (§1) The MIC's in Table II were determined by standard agar-dilution assays. The MIC's in Table III were obtained using conventional broth-dilution microtiter tests.

Mycoplasma hyorhinis 29E = experiment: MIC, broth-dilution microtiter test, M. hyorhinis 29E; type: cell-based
Procedure: as §1

Streptococcus sp. 19F = experiment: MIC, broth-dilution microtiter test, Streptococcus sp. 19F; type: cell-based
Procedure: as §1

[2] = tested on: Streptococcus Group D X66; experiment: MIC, standard agar-dilution assay, Streptococcus Group D X66; type: cell-based
Procedure: as §1

[3] = tested on: Staphylococcus aureus V41; experiment: MIC, standard agar-dilution assay, S. aureus V41; type: cell-based
Procedure: as §1

[4] = tested on: Streptococcus Group D 2041; experiment: MIC, standard agar-dilution assay, Streptococcus Group D 2041; type: cell-based
Procedure: as §1

[5] = tested on: Pasteurella multocida 17E; experiment: MIC, broth-dilution microtiter test, P. multocida 17E; type: cell-based
Procedure: as §1

[6] = tested on: Streptococcus pyogenes C203; experiment: MIC, standard agar-dilution assay, S. pyogenes C203; type: cell-based
Procedure: as §1

[7] = tested on: Streptococcus pyogenes C203; experiment: Protection of mice experimentally infected with Streptococcus pyogenes C203; type: in vivo; settings: doses given 1 and 4 hours postinfection
Procedure: The formula 1 compounds have shown in vivo antimicrobial activity against experimentally-induced infections in laboratory animals. When two doses of test compound were administered to mice experimentally infected with Streptococcus pyogenes C203, the activity observed was measured as an ED50 value [effective dose in mg/kg to protect 50% of the test animals: see Warren Wick, et al., J. Bacteriol. 81, 233-235 (1961)].
^a mg/kg × 2; doses given 1 and 4 hours postinfection

[8] = tested on: Mycoplasma hyopneumoniae S5972; experiment: MIC, broth-dilution microtiter test, M. hyopneumoniae S5972; type: cell-based
Procedure: as §1

Mycoplasma synoviae 40A = experiment: MIC, broth-dilution microtiter test, M. synoviae 40A; type: cell-based
Procedure: as §1

[9] = tested on: Pasteurella hemolytica 22C; experiment: MIC, broth-dilution microtiter test, P. hemolytica 22C; type: cell-based
Procedure: as §1

[10] = tested on: Staphylococcus aureus X1.1; experiment: MIC, standard agar-dilution assay, S. aureus X1.1; type: cell-based
Procedure: as §1

[11] = tested on: Mycoplasma gallisepticum 15E; experiment: MIC, broth-dilution microtiter test, M. gallisepticum 15E; type: cell-based; settings: Mycoplasmoides gallisepticum
Procedure: as §1

[12] = tested on: Pasteurella multocida 40G; experiment: MIC, broth-dilution microtiter test, P. multocida 40G; type: cell-based
Procedure: as §1

[13] = tested on: Staphylococcus epidermidis 222; experiment: MIC, standard agar-dilution assay, S. epidermidis 222; type: cell-based
Procedure: as §1

[14] = tested on: Klebsiella pneumoniae X68; experiment: MIC, standard agar-dilution assay, K. pneumoniae X68; type: cell-based
Procedure: as §1

Staphylococcus aureus = experiment: MIC, broth-dilution microtiter test, S. aureus; type: cell-based
Procedure: as §1

[15] = tested on: Mycoplasma gallisepticum 29C; experiment: MIC, broth-dilution microtiter test, M. gallisepticum 29C; type: cell-based; settings: Mycoplasmoides gallisepticum
Procedure: as §1

[16] = tested on: Haemophilus influenzae 76; experiment: MIC, standard agar-dilution assay, H. influenzae 76; type: cell-based
Procedure: as §1

Escherichia coli EC14 = experiment: MIC, standard agar-dilution assay, E. coli EC14; type: cell-based
Procedure: as §1

[17] = tested on: Pseudomonas aeruginosa X239; experiment: MIC, standard agar-dilution assay, P. aeruginosa X239; type: cell-based
Procedure: as §1

[18] = tested on: Pasteurella multocida 22A; experiment: MIC, broth-dilution microtiter test, P. multocida 22A; type: cell-based
Procedure: as §1

[19] = tested on: Pasteurella hemolytica 41D; experiment: MIC, broth-dilution microtiter test, P. hemolytica 41D; type: cell-based
Procedure: as §1

[20] = tested on: Pasteurella multocida 60A; experiment: MIC, broth-dilution microtiter test, P. multocida 60A; type: cell-based
Procedure: as §1

[21] = tested on: Bordetella bronchiseptica; experiment: MIC, broth-dilution microtiter test, B. bronchiseptica; type: cell-based
Procedure: as §1

[22] = tested on: Pasteurella multocida 68C; experiment: MIC, broth-dilution microtiter test, P. multocida 68C; type: cell-based
Procedure: as §1

[23] = tested on: Staphylococcus aureus S13E; experiment: MIC, standard agar-dilution assay, S. aureus S13E; type: cell-based
Procedure: as §1

[24] = tested on: Haemophilus influenzae C.L.; experiment: MIC, standard agar-dilution assay, H. influenzae C.L.; type: cell-based
Procedure: as §1

[25] = tested on: Pasteurella hemolytica 23C; experiment: MIC, broth-dilution microtiter test, P. hemolytica 23C; type: cell-based
Procedure: as §1

[26] = tested on: Mycoplasma gallisepticum 36H; experiment: MIC, broth-dilution microtiter test, M. gallisepticum 36H; type: cell-based; settings: Mycoplasmoides gallisepticum
Procedure: as §1

[27] = tested on: Staphylococcus aureus X400; experiment: MIC, standard agar-dilution assay, S. aureus X400; type: cell-based
Procedure: as §1

[28] = tested on: Staphylococcus epidermidis EPI1; experiment: MIC, standard agar-dilution assay, S. epidermidis EPI1; type: cell-based
Procedure: as §1

[29] = Streptococcus pyogenes, C203, oral, read-out: ED50
[30] = Streptococcus pyogenes, C203, sc, subcutaneous, read-out: ED50
[31] = broth-dilution microtiter, read-out: MIC

Compound `CCC1OC(=O)CC(O)C(C)C(OC2OC(C)C(O)C(N(C)C)C2O)C(CCOc2ccccc2)CC(C)C(=O)C=CC(C)=CC1COC1OC(C)C(OC)C(OC)C1OC` (stereo not drawn) [Compound 13, 4"-O-Methyl-20-DH-20-O-phenyl-desmycosin] has an MIC ([1]; agar-dilution) of 4 µg/mL (≈ 4.63 µM), an MIC (Mycoplasma hyorhinis 29E; broth-dilution microtiter) of 25 µg/mL (≈ 28.9 µM) and an MIC (Streptococcus sp. 19F; broth-dilution microtiter) of 6.25 µg/mL (≈ 7.23 µM). For the same compound, the MIC ([2]; agar-dilution) was 16 µg/mL (≈ 18.5 µM), the MIC ([3]; agar-dilution, penicillin-resistant strain) was 2 µg/mL (≈ 2.31 µM) and the MIC ([4]; agar-dilution) was 16 µg/mL (≈ 18.5 µM). The MIC ([5]; broth-dilution microtiter, bovine isolate) was “-- (not active at 50 mcg/mL)”, the MIC ([6]; agar-dilution) was 4 µg/mL (≈ 4.63 µM) and the ED50 ([7]; oral) was 18.8 mg/kg × 2 and 22.4 mg/kg × 2. It also gave an ED50 ([7]; subcutaneous) greater than 10 mg/kg × 2, an MIC ([8]; broth-dilution microtiter) greater than 25 µg/mL and an MIC (Mycoplasma synoviae 40A; broth-dilution microtiter) of 6.25 µg/mL (≈ 7.23 µM).

Compound `CCC1OC(=O)CC(O)C(C)C(OC2OC(C)C(O)C(N(C)C)C2O)C(CCOc2ccccc2)CC(C)C(=O)C=CC(C)=CC1COC1OC(C)CC(OC)C1OC` (stereo not drawn) [Compound 11, 4"-Deoxy-20-DH-20-O-phenyl-desmycosin] has an MIC ([1]; Streptococcus pneumoniae) of 0.25 µg/mL (≈ 0.3 µM), an MIC (Mycoplasma hyorhinis 29E; Mycoplasma, 29E) of 25 µg/mL (≈ 30 µM) and an MIC [9] of 25 µg/mL (≈ 30 µM). For the same compound, the MIC [10] was 0.25 µg/mL (≈ 0.3 µM), the MIC (Streptococcus sp. 19F; Streptococcus, SP.19F) was 12.5 µg/mL (≈ 15 µM) and the MIC [11] was 12.5 µg/mL (≈ 15 µM). It also gave an MIC [12] of 25 µg/mL (≈ 30 µM), an MIC [2] of 2 µg/mL (≈ 2.4 µM) and an MIC ([13]; agar-dilution, read-out: MIC) of 0.125 µg/mL (≈ 0.15 µM). The MIC ([3]; Staphylococcus aureus, V41) was 0.25 µg/mL (≈ 0.3 µM), the MIC ([4]; GROUPD2041) was 4 µg/mL (≈ 4.8 µM) and the MIC [14] was greater than 128 µg/mL. For the same compound, the MIC (Staphylococcus aureus) was 0.78 µg/mL (≈ 0.935 µM), the MIC ([5]; Pasteurella multocida, 17E) was 25 µg/mL (≈ 30 µM) and the MIC [15] was 0.39 µg/mL (≈ 0.468 µM). It also gave an MIC [16] of 32 µg/mL (≈ 38.4 µM), an MIC (Escherichia coli EC14) greater than 128 µg/mL and an MIC [17] greater than 128 µg/mL. For the same compound, the MIC [18] was 25 µg/mL (≈ 30 µM), the MIC [19] was 25 µg/mL (≈ 30 µM) and the MIC [20] was 25 µg/mL (≈ 30 µM). The MIC [21] was greater than 50 µg/mL, the MIC ([6]; Streptococcus pyogenes, C203) was 0.25 µg/mL (≈ 0.3 µM) and the MIC [22] was 12.5 µg/mL (≈ 15 µM). For the same compound, the ED50 [7, 29] was 34 mg/kg, the ED50 [7, 30] was 10 mg/kg and the MIC [23] was 0.25 µg/mL (≈ 0.3 µM). The MIC [24] was 32 µg/mL (≈ 38.4 µM), the MIC ([8]; Mesomycoplasma hyopneumoniae, S5972) was greater than 25 µg/mL and the MIC [25] was 25 µg/mL (≈ 30 µM). For the same compound, the MIC [26] was 25 µg/mL (≈ 30 µM), the MIC [27] was 0.25 µg/mL (≈ 0.3 µM) and the MIC [28] was 0.25 µg/mL (≈ 0.3 µM). For the same compound, the MIC (Mycoplasma synoviae 40A; Mycoplasmopsis synoviae, 40A) was 1.56 µg/mL (≈ 1.87 µM).

For `CCC1OC(=O)CC(O)C(C)C(OC2OC(C)C(O)C(N(C)C)C2O)C(CCOc2ccccc2)CC(C)C(=O)C=CC(C)=CC1COC1OC(C)C(N)C(OC)C1OC` (stereo not drawn) [Compound 21, 4"-Amino-4"-deoxy-20-DH-20-O-phenyl-desmycosin], the MIC ([1]; Streptococcus pneumoniae, agar-dilution, read-out: MIC) was 1 µg/mL (≈ 1.18 µM), the MIC [9, 31] was 25 µg/mL (≈ 29.4 µM) and the MIC [10] was 0.25 µg/mL (≈ 0.294 µM). For the same compound, the MIC (Streptococcus sp. 19F; Streptococcus, SP.19F, broth-dilution microtiter, read-out: MIC) was 3.12 µg/mL (≈ 3.67 µM), the MIC [11, 31] was greater than 50 µg/mL and the MIC [12, 31] was 6.25 µg/mL (≈ 7.36 µM). The MIC [2] was 4 µg/mL (≈ 4.71 µM), the MIC [13] was 0.25 µg/mL (≈ 0.294 µM) and the MIC ([3]; Staphylococcus aureus, V41) was 0.5 µg/mL (≈ 0.589 µM). The MIC ([4]; GROUPD2041, agar-dilution, read-out: MIC) was 8 µg/mL (≈ 9.42 µM), the MIC ([14]; agar-dilution, read-out: MIC) was greater than 128 µg/mL and the MIC (Staphylococcus aureus) was 0.39 µg/mL (≈ 0.459 µM). For the same compound, the MIC ([5]; Pasteurella multocida, 17E, broth-dilution microtiter, bovine isolate, read-out: MIC) was 25 µg/mL (≈ 29.4 µM), the MIC [15, 31] was 1.56 µg/mL (≈ 1.84 µM) and the MIC [16] was 16 µg/mL (≈ 18.8 µM). The MIC (Escherichia coli EC14; agar-dilution, read-out: MIC) was greater than 128 µg/mL, the MIC ([17]; agar-dilution, read-out: MIC) was greater than 128 µg/mL and the MIC [18, 31] was 12.5 µg/mL (≈ 14.7 µM). For the same compound, the MIC [19, 31] was 12.5 µg/mL (≈ 14.7 µM), the MIC ([20]; broth-dilution microtiter, avian isolate, read-out: MIC) was 12.5 µg/mL (≈ 14.7 µM) and the MIC [21, 31] was greater than 50 µg/mL. For the same compound, the MIC ([6]; Streptococcus pyogenes, C203) was 0.5 µg/mL (≈ 0.589 µM), the MIC [22, 31] was 12.5 µg/mL (≈ 14.7 µM) and the ED50 [7, 29] was 57.4 mg/kg. It also gave an ED50 [7, 30] greater than 10 mg/kg, an MIC [23] of 0.25 µg/mL (≈ 0.294 µM) and an MIC [24] of 32 µg/mL (≈ 37.7 µM). For the same compound, the MIC ([8]; Mesomycoplasma hyopneumoniae, S5972, broth-dilution microtiter, read-out: MIC) was 50 µg/mL (≈ 58.9 µM), the MIC [25, 31] was 25 µg/mL (≈ 29.4 µM) and the MIC [26, 31] was greater than 50 µg/mL. It also gave an MIC [27] of 0.25 µg/mL (≈ 0.294 µM) and an MIC [28] of 0.5 µg/mL (≈ 0.589 µM).
